Q: For `O=C1Nc2ccc(Cl)cc2/C1=N/NC(=O)c1ccncc1` [Compound 4, (Z)-N'-(5-Chloro-2-oxoindolin-3-ylidene)isonicotinohydrazide], which melting point is on record?
A: 345 to 348 °C

Q: For `O=C1Nc2ccc(F)cc2/C1=N/NC(=O)c1ccncc1` [Compound 5, (Z)-N'-(5-Fluoro-2-oxoindolin-3-ylidene)isonicotinohydrazide], which melting point is on record?
A: 346 to 348 °C

Q: With `Cc1ccc2c(c1)/C(=N/NC(=O)c1ccncc1)C(=O)N2` [Compound 6, (Z)-N'-(5-Methyl-2-oxoindolin-3-ylidene)isonicotinohydrazide] as the compound, how does the melting point read?
A: 319 to 322 °C

Q: For `O=C1Nc2ccc(OC(F)(F)F)cc2/C1=N/NC(=O)c1ccncc1` [Compound 7, (Z)-N'-(2-Oxo-5-(trifluoromethoxy)indolin-3-ylidene)isonicotinohydrazide], which melting point is on record?
A: 262 to 265 °C

Q: For `O=C1Nc2ccc([N+](=O)[O-])cc2/C1=N/NC(=O)c1ccncc1` [Compound 8, (Z)-N'-(5-Nitro-2-oxoindolin-3-ylidene)isonicotinohydrazide], which melting point is on record?
A: 350 to 353 °C

Q: Which melting point does the source give for `O=C(N/N=C1\C(=O)N(c2ccccc2)c2ccccc21)c1ccncc1` [Compound 9, (Z)-N'-(2-Oxo-1-phenylindolin-3-ylidene)isonicotinohydrazide] here?
A: 201 to 205 °C

Q: Which melting point does the source give for `O=C(N/N=C1\C(=O)N(Cc2ccccc2)c2ccc(Cl)cc21)c1ccncc1` [Compound 11, (Z)-N'-(1-Benzyl-5-chloro-2-oxoindolin-3-ylidene)isonicotinohydrazide] here?
A: 167 to 171 °C

Q: Which melting point does the source give for `O=C(N/N=C1\C(=O)N(Cc2ccccc2)c2ccc(F)cc21)c1ccncc1` [Compound 12, (Z)-N'-(1-Benzyl-5-fluoro-2-oxoindolin-3-ylidene)isonicotinohydrazide] here?
A: 188 to 192 °C

Q: With `Cc1ccc2c(c1)/C(=N/NC(=O)c1ccncc1)C(=O)N2Cc1ccccc1` [Compound 13, (Z)-N'-(1-Benzyl-5-methyl-2-oxoindolin-3-ylidene)isonicotinohydrazide] as the compound, how does the melting point read?
A: 159 to 162 °C

Q: With `O=C1Nc2ccccc2/C1=N/NC(=O)c1cccnc1` [Compound 14, (Z)-N'-(2-Oxoindolin-3-ylidene)nicotinohydrazide] as the compound, how does the melting point read?
A: 254 to 256 °C

Q: For `O=C1Nc2ccc(F)cc2/C1=N/NC(=O)c1ccco1` [Compound 15, (Z)-N'-(5-Fluoro-2-oxoindolin-3-ylidene)furan-2-carbhydrazide], which melting point is on record?
A: 310 to 312 °C

Q: With `O=C1Nc2ccccc2/C1=N/NC(=O)c1ccc([N+](=O)[O-])o1` [Compound 16, (Z)-5-Nitro-N'-(2-Oxoindolin-3-ylidene)furan-2-carbohydrazide] as the compound, how does the melting point read?
A: 309 to 311 °C

Q: For `O=C1Nc2ccc(Cl)cc2/C1=N/NC(=O)c1cc2ccccc2o1` [Compound 17, (Z)-N'-(5-Chloro-2-oxoindolin-3-ylidene)benzofuran-2-carbohydrazide], which melting point is on record?
A: 335 to 338 °C

Q: For `Cc1ccc2c(c1)/C(=N/NC(=O)c1cc3ccccc3o1)C(=O)N2` [Compound 18, (Z)-N'-(5-Methyl-2-oxoindolin-3-ylidene)benzofuran-2-carbohydrazide], which melting point is on record?
A: 331 to 336 °C

Q: For `O=C1Nc2ccc([N+](=O)[O-])cc2/C1=N/NC(=O)c1cc2ccccc2o1` [Compound 19, (Z)-N'-(5-Nitro-2-oxoindolin-3-ylidene)benzofuran-2-carbohydrazide], which melting point is on record?
A: 367 to 369 °C

Q: For `O=C(N/N=C1\C(=O)N(c2ccccc2)c2ccccc21)c1cc2ccccc2o1` [Compound 20, (Z)-N'-(2-Oxo-1-phenylindolin-3-ylidene)benzofuran-2-carbohydrazide], which melting point is on record?
A: 235 to 238 °C

Q: For `O=C1Nc2ccc(F)cc2/C1=N/NC(=O)c1cc2cc([N+](=O)[O-])ccc2o1` [Compound 21, (Z)-N'-(5-Fluoro-2-oxoindolin-3-ylidene)-5-nitrobenzofuran-2-carbhydrazide], which melting point is on record?
A: 357 to 359 °C

Q: For `O=C1/C(=N\NC(=O)C23CC4CC(CC(C4)C2)C3)c2ccccc2N1c1ccccc1` [Compound 22, (Z)-N'-(2-oxo-1-phenylindolin-3-ylidene)adamantane-1-carbohydrazide], which melting point is on record?
A: 201 to 203 °C

Q: Which melting point does the source give for `Cc1cccc(Nc2ccccc2C(=O)N/N=C2\C(=O)N(Cc3ccccc3)c3ccccc32)c1C` [Compound 23, (Z)-N'-(1-Benzyl-2-oxoindolin-3-ylidene)-2-(2,3-dimethylphenylamino)benzohydrazide] here?
A: 286 to 288 °C

Q: Which melting point does the source give for `Cc1ccc2c(c1)/C(=N/NC(=O)c1ccccc1Nc1c(Cl)ccc(C)c1Cl)C(=O)N2` [Compound 24, (Z)-2-(2,6-Dichloro-3-methylphenylamino)-N'-(5-methyl-2-oxoindolin-3-ylidene)-benzohydrazide] here?
A: 283 to 287 °C

Q: With `O=C1Nc2ccc(OC(F)(F)F)cc2/C1=N/NC(=O)c1ccccc1Nc1cccc(C(F)(F)F)c1` [Compound 25, (Z)-N'-(2-Oxo-5-(trifluoromethoxy)indolin-3-ylidene)-2-(3-(trifluoromethyl)phenylamino)-benzo-hydrazide] as the compound, how does the melting point read?
A: 226 °C

Q: With `CCn1cc(C(=O)N/N=C2\C(=O)Nc3ccc(F)cc32)c(=O)c2ccc(C)nc21` [Compound 26, (Z)-1-Ethyl-N'-(5-fluoro-2-oxoindolin-3-ylidene)-7-methyl-4-oxo-1,4-dihydro-1,8-naphthyridine-3-carbohydrazide] as the compound, how does the melting point read?
A: > 360 °C

Reference: publication PMC6264139, “Schiff Bases of Indoline-2,3-dione: Potential Novel Inhibitors of Mycobacterium Tuberculosis (Mtb) DNA Gyrase ^†” (Molecules, 2011)
